For 18 compounds, IC50 results are on record in patent US9394289B2, “Inhibitors of c-fms kinase” (Janssen Pharmaceutica NV, priority 2006, dated 2016).

Molecules are shown by their SMILES. Like-named read-outs stand apart in the source and are kept apart here.

One experiment addresses c-fms (Homo sapiens (Human), UniProt P07333). Briefly: Autophosphorylation fluorescence polarization competition immunoassay for c-fms inhibition. The class given is biochemical. The following applies: averages of three independent measurements; table head says 1 nM c-fms, method says 10 nM c-fms, 1 mM ATP; read-out: 1 nM c-fms; peptide Pi assay IC-50. The method, then:
Fluorescence Polarization Competition Immunoassay
The assay buffer used was 100 mM 4-(2-hydroxyethyl)piperazine 1-ethanesulfonic acid (HEPES), pH 7.5, 1 mM 1,4-dithio-DL-threitol (DTT), 0.01% (v/v) Tween-20. Compounds were diluted in assay buffer containing 4% dimethylsulfoxide (DMSO) just prior to the assay. To each well, 5 μL of compound were added followed by the addition of 3 μL of a mix containing 33 nM c-fms (Johnson & Johnson PRD) and 16.7 mM MgCl2 (Sigma) in assay buffer. The kinase reaction was initiated by adding 2 μL of 5 mM ATP (Sigma) in assay buffer. […] Control reactions were ran in each plate: in positive and negative control wells, assay buffer (made 4% in DMSO) was substituted for the compound; in addition, positive control wells received 1.2 μL of 50 mM ethylenediaminetetraaceticacid (EDTA).
The plates were incubated at room temperature for 45 min. At the end of the incubation, the reaction was quenched with 1.2 μL of 50 mM EDTA (EDTA was not added to the positive control wells at this point; see above). Following a 5-min incubation, each well received 10 μL of a 1:1:3 mixture of anti-phosphotyrosine antibody, 10×, PTK green tracer, 10× (vortexed), FP dilution buffer, respectively (all from PanVera, cat. #P2837). The plate was covered, incubated for 30 min at room temperature and the fluorescence polarization was read on the Analyst. The instrument settings were: 485 nm excitation filter; 530 nm emission filter; Z height: middle of well; G factor: 0.93. […] The reported IC50 values are averages of three independent measurements.

The subject of experiment [1] is mouse bone-marrow derived macrophages (BMDM). Description: CSF-1-driven mouse bone-marrow derived macrophages proliferation assay (BrDU incorporation). Particulars: 30 hrs culture, read-out: mCSF driven proliferation BMDM (Mouse) IC-50. The class given is cell-based. Here is the method: CSF-1-Driven Mouse Bone-Marrow Derived Macrophages Assay
Macrophages are derived by culturing mouse bone marrow in alpha-MEM supplemented with 10% FCS and 50 ng/ml recombinant mouse CSF-1 in bacteriologic dishes. On the sixth day, macrophages are detached from dishes, washed, and resuspended to 0.05 million cells/ml in alpha-MEM containing 10% FCS. One hundred ul of cell suspension are distributed per well into 96 well culture plates. Wells are further supplemented with the addition of 50 ul media containing 15 ng/ml CSF-1, 3 uM Indomethacin, and 3× of a dilution series of test compounds. The cells are cultured for 30 hrs at 37 degrees and 5% CO2. During the final six hours, cultures are supplemented with an additional 30 ul of media containing a 1:500 dilution of bromodeoxyuridine (BrDU). At the end of the culture period, the plates are spun at 1000 RPM for 1 minute and 130 ul of media is removed with a pipet and replaced with 150 ul of fixative solution for 1 hour @ room temperature. The fixative is then dispelled from the plates and the plates allowed to air dry. Incorporation of BrDU into the fixed, dried cells is quantified using a specific ELISA.

Chain of c-fms (P07333 20-972): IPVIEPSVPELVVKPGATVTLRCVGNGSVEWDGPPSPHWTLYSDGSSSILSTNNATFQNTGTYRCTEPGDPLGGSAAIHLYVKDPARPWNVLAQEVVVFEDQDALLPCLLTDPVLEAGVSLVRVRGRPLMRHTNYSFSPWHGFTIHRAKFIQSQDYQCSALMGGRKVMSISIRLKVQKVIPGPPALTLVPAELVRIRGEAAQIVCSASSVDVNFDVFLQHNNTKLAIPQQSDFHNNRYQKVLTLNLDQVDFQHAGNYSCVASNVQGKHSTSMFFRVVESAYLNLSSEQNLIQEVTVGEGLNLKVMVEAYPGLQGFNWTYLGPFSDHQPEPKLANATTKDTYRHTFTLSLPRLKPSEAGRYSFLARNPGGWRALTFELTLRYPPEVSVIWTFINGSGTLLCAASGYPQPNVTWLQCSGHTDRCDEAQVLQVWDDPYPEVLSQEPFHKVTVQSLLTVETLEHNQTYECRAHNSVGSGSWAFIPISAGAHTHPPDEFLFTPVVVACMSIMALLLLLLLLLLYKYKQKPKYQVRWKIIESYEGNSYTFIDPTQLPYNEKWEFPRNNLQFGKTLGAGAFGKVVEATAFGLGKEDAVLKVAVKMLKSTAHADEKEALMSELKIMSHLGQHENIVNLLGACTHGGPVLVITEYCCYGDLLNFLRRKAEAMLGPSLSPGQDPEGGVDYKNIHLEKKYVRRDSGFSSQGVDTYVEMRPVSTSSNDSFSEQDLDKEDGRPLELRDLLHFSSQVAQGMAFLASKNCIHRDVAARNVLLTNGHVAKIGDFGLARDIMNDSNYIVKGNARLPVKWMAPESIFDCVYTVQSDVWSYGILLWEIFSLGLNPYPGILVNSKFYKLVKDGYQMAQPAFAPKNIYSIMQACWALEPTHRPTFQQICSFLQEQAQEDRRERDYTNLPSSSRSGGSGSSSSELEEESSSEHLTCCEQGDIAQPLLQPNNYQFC

Take `CC1(C)CC=C(c2cc(C3(c4nn[nH]n4)CCOCC3)ccc2NC(=O)c2nc(C#N)c[nH]2)CC1` [Example 22, 4-Cyano-1H-imidazole-2-carboxylic acid {2-(4,4-dimethyl-cyclohex-1-enyl)-4-[4-(2H-tetrazol-5-yl)-tetrahydro-pyran-4-yl]-phenyl}-amide]: the IC50 at c-fms was 0.8 nM; in experiment [1] (Mus musculus, BMDM), more than 300 nM.
For `CC1(C)CC=C(c2cc(C3(C(=O)O)CCOCC3)ccc2NC(=O)c2cc(C#N)c[nH]2)CC1` [Example 23, 4-[4-[(4-Cyano-1H-pyrrole-2-carbonyl)-amino]-3-(4,4-dimethyl-cyclohex-1-enyl)-phenyl]-tetrahydro-pyran-4-carboxylic acid], the IC50 was 6.4 nM on c-fms and more than 300 nM in experiment [1] (Mus musculus, BMDM).
In the same order, the values of `CC1(C)CC=C(c2cc(C3(C(N)=O)CCOCC3)ccc2NC(=O)c2nc(C#N)c[nH]2)CC1` [Example 24, 4-Cyano-1H-imidazole-2-carboxylic acid [4-(4-carbamoyl-tetrahydro-pyran-4-yl)-2-(4,4-dimethyl-cyclohex-1-enyl)-phenyl]-amide] are 0.8 nM and 14 nM.
In the same order, the values of `CC1(C)CC=C(c2cc(C3(CO)CCOCC3)ccc2NC(=O)c2nc(C#N)c[nH]2)CC1` [Example 25, 4-Cyano-1H-imidazole-2-carboxylic acid [2-(4,4-dimethyl-cyclohex-1-enyl)-4-(4-hydroxymethyl-tetrahydro-pyran-4-yl)-phenyl]-amide] are 0.49 nM and 6.5 nM.
On the same counts, the results for `CC1(C)CC=C(c2cc(C3(CN4CCOCC4)CCOCC3)ccc2NC(=O)c2nc(C#N)c[nH]2)CC1` [Example 26, 4-Cyano-1H-imidazole-2-carboxylic acid [2-(4,4-dimethyl-cyclohex-1-enyl)-4-(4-morpholin-4-ylmethyl-tetrahydro-pyran-4-yl)-phenyl]-amide] are 3 nM and 5.3 nM.
Turning to `N#Cc1c[nH]c(C(=O)Nc2ccc(C3(O)CCOCC3)cc2C2=CCCCC2)n1` [Example 27, 4-Cyano-1H-imidazole-2-carboxylic acid [2-cyclohex-1-enyl-4-(4-hydroxy-tetrahydro-pyran-4-yl)-phenyl]-amide], the IC50 on c-fms amounted to 2.9 nM; in experiment [1] (Mus musculus, BMDM) it was 4.5 nM.
Turning to `CN(C)C(=O)C1(c2ccc(NC(=O)c3nc(C#N)c[nH]3)c(C3=CCCCC3)c2)CCOCC1` [Example 28, 4-Cyano-1H-imidazole-2-carboxylic acid [2-cyclohex-1-enyl-4-(4dimethylcarbamoyl-tetrahydro-pyran-4-yl)-phenyl]-amide], the IC50 was found to be 8.4 nM on c-fms and 28 nM in experiment [1] (Mus musculus, BMDM).
On the same counts, the results for `CN(C)C(=O)C1(c2ccc(NC(=O)c3nc(C#N)c[nH]3)c(C3=CCC(C)(C)CC3)c2)CCOCC1` [Example 29, 4-Cyano-1H-imidazole-2-carboxylic acid [4-(4-dimethylcarbamoyl-tetrahydro-pyran-4-yl)-2-(4,4-dimethyl-cyclohex-1-enyl)-phenyl]-amide] are 1.6 nM and 11 nM.
For `C[C@@H]1CC(O)(c2ccc(NC(=O)c3nc(C#N)c[nH]3)c(C3=CCC(C)(C)CC3)c2)C[C@H](C)O1` (stereo partly drawn) [Example 30, 4-Cyano-1H-imidazole-2-carboxylic acid [2-(4,4-dimethyl-cyclohex-1-enyl)-4-(cis-4-hydroxy-cis-2,6-dimethyl-tetrahydro-pyran-4-yl)-phenyl]-amide], the IC50 on c-fms came to 3.2 nM; in experiment [1] it was 7 nM.
On the same counts, the results for `C[C@@H]1CC(O)(c2ccc(NC(=O)c3nc(C#N)c[nH]3)c(C3=CCC(C)(C)CC3)c2)C[C@H](C)O1` (stereo partly drawn) [Example 31, 4-cyano-1H-imidazole-2-carboxylic acid [2-(4,4-dimethyl-cyclohex-1-enyl)-4-(trans-4-hydroxy-cis-2,6-dimethyl-tetrahydro-pyran-4-yl)-phenyl]-amide] are 1.4 nM and 3 nM.
On to `C[C@@H]1CC(O)(c2ccc(NC(=O)c3nc(C#N)c[nH]3)c(C3=CCC(C)(C)CC3)n2)C[C@H](C)O1` (stereo partly drawn) [Example 32, 4-Cyano-1H-imidazole-2-carboxylic acid [2-(4,4-dimethyl-cyclohex-1-enyl)-6-(4-hydroxy-Cis-2,6-dimethyl-tetrahydro-pyran-4-yl)-pyridin-3-yl]-amide], for which the IC50 was 3.2 nM at c-fms and 19 nM in experiment [1] (Mus musculus, BMDM).
In the same order, the values of `CC1(C)CC=C(c2nc(C3(O)CCOCC3)ccc2NC(=O)c2nc(C#N)c[nH]2)CC1` [Example 33, 4-Cyano-1H-imidazole-2-carboxylic acid [2-(4,4-dimethyl-cyclohex-1-enyl)-6-(4-hydroxy-tetrahydro-pyran-4-yl)-pyridin-3-yl]-amide] are 3.7 nM and 33 nM.
On the same counts, the results for `CS(=O)(=O)C1(c2ccc(NC(=O)c3ncc(C#N)[nH]3)c(C3=CCCCC3)c2)CCOCC1` [Example 34, 5-Cyano-1H-imidazole-2-carboxylic acid [2-cyclohex-1-enyl-4-(4-methanesulfonyl-tetrahydro-pyran-4-yl)-phenyl]-amide] are 1.5 nM and 17.2 nM.
For `CC(=O)N1CCC(O)(c2ccc(NC(=O)c3nc(C#N)c[nH]3)c(C3=CCC(C)(C)CC3)c2)CC1` [Example 35, 4-Cyano-1H-imidazole-2-carboxylic acid [4-(1-acetyl-4-hydroxy-piperidin-4-yl)-2-(4,4-dimethyl-cyclohex-1-enyl)-phenyl]-amide], the IC50 is 0.7 nM at c-fms and 5.8 nM in experiment [1] (Mus musculus, BMDM).
In the same order, the values of `CC1(C)CC=C(c2cc(C3(C#N)CCS(=O)(=O)CC3)ccc2NC(=O)c2nc(C#N)c[nH]2)CC1` [Example 87, 4-Cyano-1H-imidazole-2-carboxylic acid [4-(4-cyano-1,1-dioxo-hexahydro-1λ^6-thiopyran-4-yl)-2-(4,4-dimethyl-cyclohex-1-enyl)-phenyl]-amide] are 1.1 nM and 8.2 nM.
In the same order, the values of `CC1(C)CC=C(c2cc(C3(O)CC(C)(C)OC(C)(C)C3)ccc2NC(=O)c2nc(C#N)c[nH]2)CC1` [Example 88, 4-Cyano-1H-imidazole-2-carboxylic acid [2-(4,4-dimethyl-cyclohex-1-enyl)-4-(4-hydroxy-2,2,6,6-tetramethyl-tetrahydro-pyran-4-yl)-phenyl]-amide] are 2.4 nM and 6.4 nM.
In the same order, the values of `CON1C(C)(C)CC(O)(c2ccc(NC(=O)c3nc(C#N)c[nH]3)c(C3=CCC(C)(C)CC3)c2)CC1(C)C` [Example 89, 4-Cyano-1H-imidazole-2-carboxylic acid [2-(4,4-dimethyl-cyclohex-1-enyl)-4-(4-hydroxy-1-methoxy-2,2,6,6-tetramethyl-piperidin-4-yl)-phenyl]-amide] are 13 nM and 20 nM.
Take `CC1(C)CC=C(c2cc(C3(O)CCN(CC(F)(F)F)CC3)ccc2NC(=O)c2nc(C#N)c[nH]2)CC1` [Example 90, 4-Cyano-1H-imidazole-2-carboxylic acid {2-(4,4-dimethyl-cyclohex-1-enyl)-4-[4-hydroxy-1-(2,2,2-trifluoro-ethyl)-piperidin-4-yl]-phenyl}-amide]: the IC50 is 6.5 nM at c-fms and 40 nM in experiment [1] (Mus musculus, BMDM).
